Experiments:
PLA2 = details: literature; cited from earlier work
[1] = target: T1, human platelet phospholipase A2 (Homo sapiens, UniProt P14555); assay: Inhibition of human platelet phospholipase A2 (14C-oleate E. coli substrate); format: biochemical; details: for IC50: pH 7.0, 37°, 60 min incubation, read-out: Inhibition of PLA2, IC50; for inhibition at 50 µM: read-out: Inhibition of PLA2, % Inhibition @ 50 μM
T1 construct: a preparation of human platelet phospholipase A2; from tissue; host or cells: human platelets
T1 sequence (P14555 21-144): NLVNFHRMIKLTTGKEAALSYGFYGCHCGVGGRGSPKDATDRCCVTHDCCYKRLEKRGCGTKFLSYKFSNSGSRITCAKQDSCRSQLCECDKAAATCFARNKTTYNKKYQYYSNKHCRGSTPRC
Procedure: The activity of the compounds of the invention against phospholipase A2 is determined using a preparation of human platelet phospholipase A2 with a specific activity of 180 nmol/min/mg as the enzyme source. Polypropylene 15-ml test tubes are utilized as the reaction vessels. All drug samples are run in duplicate, with "blank" and "control" (no test compound) groups run in triplicate. […] Test compounds are dissolved in DMSO, and diluted to a projected final concentration of either 50 or 10 μM in 550 μl HEPES buffer at pH 7.0. A 1:7 dilution of human platelet PLA2 in HEPES buffer (5 μl) is added to each test tube, followed by gentle vortexing for 3 seconds. The reaction tubes containing drug, buffer, and enzyme are preincubated for 15 min at 37°, followed by the addition of 25 μl of ^14 C-oleate E. coli substrate. Details regarding this substrate may be found in a publication by S. Ghosh and R. Franson, Biochem. Cell. Biol., 70, 43 (1992), and references therein.
The tubes are immediately vortexed at moderate speed for 3 sec, followed by a 60 min incubation at 37° in a shaking water bath. The reaction is stopped by the addition of 3 ml of a 1:2 chloroform-methanol mixture. Additional water (1.5 ml) and chloroform (1.0 ml) are added, followed by vortexing. The lower phase is removed with a polypropylene transfer pipette, and transferred to a 13×100 mm polypropylene test tube. The organic solvent is evaporated with a stream of nitrogen, the residue is redissolved in 30 μl of a 9:1 chloroform-methanol mixture, and the solution is spotted on a channeled polyester-backed silica gel TLC plate, such as those available under the trade name PE SIL G available from Whatman Inc, Clifton, N.J.
The plate is developed with an 80:20:1 mixture of petroleum ether-diethyl ether-acetic acid. […] The plate is scored above the origin, cut along the score with scissors, and the reactant (origin) and product portions of each channel are put into separate scintillation vials. To each vial is added a scintillation cocktail (15 ml), preferably that sold under the trademark ECOLUME by ICN Biomedicals, Irvine Calif. The vials are shaken vigorously for 5 sec, and the radioactive ^14 C in each vial is measured with a scintillation counter, which provides the counts-per-minute (cpm) for each sample. The obtained cpm values are corrected for the "blank" values.
The percentage of phospholipid hydrolyzed is calculated by the formula:
Phospholipid converted=100×cpm products / (cpm products+cpm
The inhibition of phospholipase A2 by the test compounds is expressed as a percent inhibition relative to the control group:
% Inhibition=[…]

[2] = system: TPA-induced inflammation in the mouse ear; assay: Topical anti-inflammatory activity: TPA-induced inflammation (edema) in the mouse ear; format: in vivo, mouse (male CD-1); details: Mus musculus, @ 100 μg, 5-6 h after TPA
Procedure: The topical anti-inflammatory activity of the compounds is determined by measuring the degree of inhibition of TPA-induced inflammation in the mouse ear, using essentially the procedure of C. Van Arman, Clin. Pharmacol. Ther., 16, 900 (1974). Male CD-1 mice are used at seven to nine weeks of age. 12-O-tetradecanoylphorbol acetate ([…] in 20 μl of acetone) is dispensed onto the dorsum of the left ear of each mouse, and the right ear is left untreated. Ten mice so treated serve as the control group. […]
After five to six hours, the animals are sacrificed by CO2 inhalation, the ears are removed, and 7 mm circular punch biopsies of are taken from each ear and weighed. The difference in biopsy weight between treated and untreated ears is determined, and the degree of anti-inflammatory activity is expressed in terms of the percent inhibition of ear weight increase relative to the control group. In multiple-dose experiments, varying amounts of the compound to be tested are applied along with the TPA and the results are expressed as the ED50, the dose at which a 50% inhibition of weight gain is observed.

SMILES	inhibition of PLA2 (PLA2)	nature of PLA2 inhibition (PLA2)	IC50 [1]	inhibition at 50 µM [1]	inhibition in vivo at 100 µg/ear [2]
CC1=C(CC/C(C)=C/CCC2=CCC(C3=CC(=O)OC3O)OC2O)C(C)(C)CCC1 (stereo not drawn) [Manoalide, manoalide]	potent inhibitor of PLA2	irreversible nature of PLA2 inhibition	–	–	–
CC(C)=CCC/C(C)=C/CSc1ccc(C2=CC(=O)OC2O)cc1 (stereo not drawn) [Example 23, (E)-5-Hydroxy-4-(4-(3,7-dimethyl-2,6-octadienyl)thio)phenyl-2(5H)furanone]	–	–	8 µM	78%	56%
O=C1C=C(c2ccccc2)C(O)O1 (stereo not drawn) [Example 42, 5-Hydroxy-4-phenyl-2(5H)-furanone]	–	–	–	9%	45%
CCCCCCC#Cc1ccc(C2=CC(=O)OC2O)cc1 (stereo not drawn) [Example 54, 5-Hydroxy-4-(4-(1-octynyl)phenyl)-2(5H)-furanone]	–	–	5 µM	100%	9%
CCCCCC/C=C/c1ccc(C2=CC(=O)OC2O)cc1 (stereo not drawn) [Example 35, (E)-5-Hydroxy-4-(4-(1-octenyl)phenyl)-2(5H)-furanone]	–	–	5 µM	100%	30%
O=C1C=C(c2cccc(Oc3ccccc3)c2)C(O)O1 (stereo not drawn) [Example 43, 5-Hydroxy-4-(3-phenoxyphenyl)-2(5H)-furanone]	–	–	–	30%	52%

— US5464865A, “4-aryl- and 4-arylthio-5-hydroxy-2(5H)-furanones as inhibitors of phospholipase A2” (Ortho Pharmaceutical Corporation, priority 1993, dated 1995)
